Measured values: the supplement of paper PMC10307832

Compound: CC1(C)CCC(CN2CCN(c3ccc(C(=O)NS(=O)(=O)c4ccc(NCC5CCOCC5)c([N+](=O)[O-])c4)c(Oc4cnc5[nH]ccc5c4)c3)CC2)=C(c2ccc(Cl)cc2)C1 [Venetoclax] + O=C(c1cc(Cc2n[nH]c(=O)c3ccccc23)ccc1F)N1CCN(C(=O)C2CC2)CC1 [Olaparib] (partner 8 µM)
Test: relative viability (nuclei count vs DMSO), 5 days (fraction); higher = more cells survive
Details: first compound 0.01 µM
In short: (§1)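 Lung cancer cell lines, seeded in 1536-well plates, were treated the following day by pin tool with a single drug or with five library-drug doses (not always all listed) in √10 steps on top of a fixed anchor-drug dose. Cells were fixed and nuclei stained in one step after 5 days, and nuclei were counted. Relative viability is the nuclei count for treated wells divided by that for vehicle wells, reported as medians of duplicate plates.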

Going from NCI-H2405 to NCI-H1437, the relative viability falls from 0.833 to 0.607.

Going from H3255 to NCI-H2347, the relative viability falls from 0.626 to 0.578.

First: NCI-H1975
Second: NCI-H441
The relative viability of the first is higher: 0.754 for the first, 0.627 for the second.

Going from NCI-H1915 to NCI-H2087, the relative viability rises from 0.275 to 0.611.

Compared with HCC-366, NCI-H1793 is higher in relative viability: 0.4 for the first, 0.867 for the second.

Going from RERF-LC-KJ to EKVX, the relative viability rises from 0.883 to 0.93.

First: LCLC-103H
Second: NCI-H1651
The relative viability of the first is higher: 0.778 for the first, 0.157 for the second.

First: NCI-H1944
Second: ABC-1
The relative viability of the first is lower: 0.627 for the first, 0.711 for the second.

Compared with NCI-H358, NCI-H727 is higher in relative viability: 0.567 for the first, 0.758 for the second.

Same assay, conditions: first compound 0.03162 µM

Compared with NCI-H2405, NCI-H1437 is lower in relative viability: 0.881 for the first, 0.616 for the second.

Compared with H3255, NCI-H2347 is lower in relative viability: 0.576 for the first, 0.558 for the second.

First: NCI-H1975
Second: NCI-H441
The relative viability of the first is higher: 0.821 for the first, 0.646 for the second.

First: NCI-H1915
Second: NCI-H2087
The relative viability of the first is lower: 0.288 for the first, 0.736 for the second.

Going from HCC-366 to NCI-H1793, the relative viability rises from 0.374 to 0.892.

Going from RERF-LC-KJ to EKVX, the relative viability rises from 0.839 to 0.908.

First: LCLC-103H
Second: NCI-H1651
The relative viability of the first is higher: 0.846 for the first, 0.204 for the second.

First: NCI-H1944
Second: ABC-1
The relative viability of the first is lower: 0.394 for the first, 0.721 for the second.

Compared with NCI-H358, NCI-H727 is higher in relative viability: 0.651 for the first, 0.801 for the second.

Same assay, conditions: first compound 0.1 µM

First: NCI-H2405
Second: NCI-H1437
The relative viability of the first is higher: 0.915 for the first, 0.624 for the second.

Compared with H3255, NCI-H2347 is lower in relative viability: 0.545 for the first, 0.514 for the second.

Compared with NCI-H1975, NCI-H441 is lower in relative viability: 0.74 for the first, 0.568 for the second.

First: NCI-H1915
Second: NCI-H2087
The relative viability of the first is lower: 0.264 for the first, 0.45 for the second.

First: HCC-366
Second: NCI-H1793
The relative viability of the first is lower: 0.372 for the first, 0.883 for the second.

Going from RERF-LC-KJ to EKVX, the relative viability falls from 0.934 to 0.817.

Compared with LCLC-103H, NCI-H1651 is lower in relative viability: 0.783 for the first, 0.171 for the second.

Going from NCI-H1944 to ABC-1, the relative viability rises from 0.392 to 0.87.

Going from NCI-H358 to NCI-H727, the relative viability rises from 0.575 to 0.803.

Same assay, conditions: first compound 0.3162 µM

First: NCI-H2405
Second: NCI-H1437
The relative viability of the first is higher: 0.929 for the first, 0.615 for the second.

First: H3255
Second: NCI-H2347
The relative viability of the first is lower: 0.597 for the first, 0.633 for the second.

Going from NCI-H1975 to NCI-H441, the relative viability falls from 0.811 to 0.611.

First: NCI-H1915
Second: NCI-H2087
The relative viability of the first is lower: 0.272 for the first, 0.567 for the second.

Compared with HCC-366, NCI-H1793 is higher in relative viability: 0.353 for the first, 0.806 for the second.

Compared with RERF-LC-KJ, EKVX is lower in relative viability: 0.935 for the first, 0.855 for the second.

First: LCLC-103H
Second: NCI-H1651
The relative viability of the first is higher: 0.787 for the first, 0.171 for the second.

Compared with NCI-H1944, ABC-1 is higher in relative viability: 0.418 for the first, 0.641 for the second.

Going from NCI-H358 to NCI-H727, the relative viability rises from 0.773 to 0.836.

Same assay, conditions: first compound 1 µM

Compared with NCI-H2405, NCI-H1437 is lower in relative viability: 0.78 for the first, 0.601 for the second.

Compared with H3255, NCI-H2347 is lower in relative viability: 0.566 for the first, 0.537 for the second.

First: NCI-H1975
Second: NCI-H441
The relative viability of the first is higher: 0.674 for the first, 0.582 for the second.

First: NCI-H1915
Second: NCI-H2087
The relative viability of the first is lower: 0.231 for the first, 0.692 for the second.

Going from HCC-366 to NCI-H1793, the relative viability rises from 0.311 to 0.712.

Compared with RERF-LC-KJ, EKVX is lower in relative viability: 0.847 for the first, 0.819 for the second.

Going from LCLC-103H to NCI-H1651, the relative viability falls from 0.752 to 0.188.

First: NCI-H1944
Second: ABC-1
The relative viability of the first is lower: 0.406 for the first, 0.686 for the second.

First: NCI-H358
Second: NCI-H727
The relative viability of the first is lower: 0.579 for the first, 0.641 for the second.

Compound: Cn1cnc2c(F)c(Nc3ccc(Br)cc3Cl)c(C(=O)NOCCO)cc21 [Selumetinib] + CS(=O)(=O)N1CCN(Cc2cc3nc(-c4cccc5[nH]ncc45)nc(N4CCOCC4)c3s2)CC1 [Pictilisib] (partner 1 µM)
Test: as above
Details: first compound 0.02 µM
In short: as §1

Compared with NCI-H2405, NCI-H1437 is lower in relative viability: 0.382 for the first, 0.237 for the second.

Compared with H3255, NCI-H2347 is higher in relative viability: 0.434 for the first, 0.641 for the second.

First: NCI-H1975
Second: NCI-H441
The relative viability of the first is lower: 0.259 for the first, 0.472 for the second.

First: NCI-H1915
Second: NCI-H2087
The relative viability of the first is higher: 0.889 for the first, 0.552 for the second.

Going from HCC-366 to NCI-H1793, the relative viability rises from 0.136 to 0.288.

Compared with RERF-LC-KJ, EKVX is lower in relative viability: 0.527 for the first, 0.395 for the second.

Going from LCLC-103H to NCI-H1651, the relative viability falls from 0.551 to 0.536.

First: NCI-H1944
Second: ABC-1
The relative viability of the first is lower: 0.338 for the first, 0.64 for the second.

Compared with NCI-H358, NCI-H727 is lower in relative viability: 0.316 for the first, 0.309 for the second.

Same assay, conditions: first compound 0.06325 µM

First: NCI-H2405
Second: NCI-H1437
The relative viability of the first is higher: 0.303 for the first, 0.178 for the second.

First: H3255
Second: NCI-H2347
The relative viability of the first is higher: 0.462 for the first, 0.314 for the second.

Going from NCI-H1975 to NCI-H441, the relative viability rises from 0.242 to 0.363.

First: NCI-H1915
Second: NCI-H2087
The relative viability of the first is higher: 0.716 for the first, 0.405 for the second.

Compared with HCC-366, NCI-H1793 is higher in relative viability: 0.0735 for the first, 0.286 for the second.

First: RERF-LC-KJ
Second: EKVX
The relative viability of the first is higher: 0.476 for the first, 0.391 for the second.

First: LCLC-103H
Second: NCI-H1651
The relative viability of the first is higher: 0.655 for the first, 0.51 for the second.

Compared with NCI-H1944, ABC-1 is higher in relative viability: 0.337 for the first, 0.605 for the second.

First: NCI-H358
Second: NCI-H727
The relative viability of the first is higher: 0.302 for the first, 0.214 for the second.

Same assay, conditions: first compound 0.2 µM

First: NCI-H2405
Second: NCI-H1437
The relative viability of the first is higher: 0.269 for the first, 0.157 for the second.

First: H3255
Second: NCI-H2347
The relative viability of the first is higher: 0.38 for the first, 0.239 for the second.

First: NCI-H1975
Second: NCI-H441
The relative viability of the first is lower: 0.211 for the first, 0.306 for the second.

Compared with NCI-H1915, NCI-H2087 is lower in relative viability: 0.454 for the first, 0.329 for the second.

Going from HCC-366 to NCI-H1793, the relative viability rises from 0.124 to 0.314.

Going from RERF-LC-KJ to EKVX, the relative viability falls from 0.44 to 0.317.

Going from LCLC-103H to NCI-H1651, the relative viability falls from 0.545 to 0.511.

Going from NCI-H1944 to ABC-1, the relative viability rises from 0.275 to 0.393.

Going from NCI-H358 to NCI-H727, the relative viability falls from 0.314 to 0.155.

Same assay, conditions: first compound 0.6325 µM

First: NCI-H2405
Second: NCI-H1437
The relative viability of the first is higher: 0.26 for the first, 0.149 for the second.

First: H3255
Second: NCI-H2347
The relative viability of the first is higher: 0.36 for the first, 0.258 for the second.

Compared with NCI-H1975, NCI-H441 is higher in relative viability: 0.204 for the first, 0.292 for the second.

Going from NCI-H1915 to NCI-H2087, the relative viability falls from 0.448 to 0.267.

HCC-366 gave a relative viability of 0.115.
